Results from patent publication US20100137134A1, “Pesticidal Mixtures” (priority 2005, published 2010).

Assays:
[1] = tested on: boll weevil (Anthonomus grandis); assay: Control of boll weevil, insect diet with eggs in 24-well microtiter plates (Test B.2); assay type: in vivo
Protocol: For evaluating control of boll weevil (Anthonomus grandis) the test unit consisted of 24-well-microtiter plates containing an insect diet and 20-30 A. grandis eggs.
The compounds or mixtures were formulated using a solution containing 75% water and 25% DMSO. Different concentrations of formulated compounds or mixtures were sprayed onto the […] at 20 μl, using a custom built micro atomizer, at two replications.
(§1) For experimental mixtures in these tests identical volumes of both mixing partners at the desired concentrations respectively, were mixed together.
After application, microtiter plates were incubated at 23±1° C., 50±5% RH (room humidity) for 5 days. Egg and larval mortality was then visually assessed.

[2] = tested on: vetch aphid (Megoura viciae); assay: Control of vetch aphid on broad bean leaf disks in 24-well microtiter plates (Test B.1); assay type: in vivo
Protocol: For evaluating control of vetch aphid (Megoura viciae) through contact or systemic means the test unit consisted of 24-well-microtiter plates containing broad bean leaf disks.
The compounds or mixtures were formulated using a solution containing 75% water and 25% DMSO (dimethylsulfoxid). Different concentrations of formulated compounds or mixtures were sprayed onto the leaf disks at 2.5 μl, using a custom built micro atomizer, at two replications.
as §1
After application, the leaf disks were air-dried and 5-8 adult aphids placed on the leaf disks inside the microtiter plate wells. The aphids were then allowed to suck on the treated leaf disks and incubated at 23±1° C., 50±5% RH (room humidity) for 5 days. Aphid mortality and fecundity was then visually assessed.

SMILES: Cc1cc(C#N)cc(C(N)=O)c1NC(=O)c1cc(Br)nn1-c1ncccc1Cl [IA-26/T4]
- Average (Control %) ([1]; test compound alone, 0.3 ppm (0 + 0.3), 5 days): 0%
- Average (Control %) ([2]; test compound alone, 0.1 ppm (0 + 0.1), 5 days): 0%

SMILES: Cc1cc(C#N)cc(C(=O)NC2CC2)c1NC(=O)c1cc(Br)nn1-c1ncccc1Cl [IA-326/T4]
- Average (Control %) ([1]; test compound alone, 0.01 ppm (0 + 0.01), 5 days): 0%
- Average (Control %) ([1]; test compound alone, 0.03 ppm (0 + 0.03), 5 days): 0%

SMILES: O=[N+]([O-])NC1=NCCN1Cc1ccc(Cl)nc1 [Imidacloprid, reference compound]
- Average (Control %) ([1]; Imidacloprid alone, 10 ppm (10 + 0), egg and larval mortality after 5 days): 0%
- Average (Control %) ([2]; Imidacloprid alone, 1 ppm (1 + 0), aphid mortality and fecundity after 5 days): 25%
